Test results: PMC7179167 (Molecules, 2020)
Converted amounts (≈) assume the structure as drawn. Where two headings read alike, the source gives them in different places.

Tests used:
[1] = system: p53; test: p53 ELISA in MCF-7 cells; assay type: cell-based, human; settings: MCF-7 cells treated at IC50 concentration; control 4.18 ± 0.58; mean ± SD
Text: (§1) The promising antiproliferative results reported for compounds 11a, 11b, 12a, 12b and 13c against cell lines under study have prompted us to investigate the mechanism of cell death induced by these compounds. Apoptosis induction was examined in both MCF-7 and HCT-116 cancer cells by assaying the level of its key protein markers, namely: proapoptotic (p53, Bcl 2-associated X, Bax and caspases3) and antiapoptotic (B-cell lymphoma-2, Bcl-2). MCF-7 and HCT-116 cells undergoing apoptosis was detected by use of the ELISA technique. Protein marker levels were quantified according to Bradford assay.
(§2) Briefly, cells ([…] and HCT) were seeded at a concentration of 1.2–1.8 × 10^3 cells/well in 6-well plates. After 48-h treatment, the collected cells were lysed and centrifuged at 10,000 rpm for 20 min at 4 °C. The protein concentration was measured in the supernatant by Bradford protein assay. Volume containing […] of total protein was incubated with […] of caspase substrate in […] of the reaction buffer at 37 °C for 1 h in the dark. Caspase-3 activity was determined by a microplate reader at 405 nm using a caspase-3 colorimetric assay kit (Abcam) according to the manufacturer’s instructions. In vitro protein level quantitative measurement of apoptotic marker p53, Bcl-2-associated X (Bax) and antiapoptotic marker B-cell lymphoma-2 (Bcl-2) in cell lysate were assessed by Enzyme-Linked Immunosorbent Assay Simple Step ELISA® (ab199080, ab119506 and ab171571; Abcam) according to the manufacturer’s instructions.

[2] = DPPH free radical scavenging assay; assay type: biochemical; settings: concentration of 20µg/l, mean ± SD of three experiments
Procedure, shortened: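 Compound DMSO stock (1 mg/mL) added to fresh DPPH in DMSO (20 mg/L), vortexed 1 min, kept dark for 15–60 min. Absorbance at 517 nm; % scavenging = (A control − A sample)/A control × 100; triplicates averaged. Ascorbic acid served as reference.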

[3] = system: HCT-116 (human colon cancer); test: MTT cytotoxicity assay, HCT-116; assay type: cell-based; settings: Homo sapiens; for inhibition at 100 µg/mL: HCT-116, 100 µg/ml, 48 h, read-out: Growth Inhibition (%) HCT-116; for IC50: HCT-116, 48 h, 48 h post-treatment
Method: MCF-7 (human breast cancer), HCT-116 (human colon cancer) and HepG2 (human liver cancer) cell lines were obtained from Karolinska Institute, Stockholm, Sweden. All cells were maintained in RPMI 1640 medium. The media were supplemented with 10% heat-inactivated fetal bovine serum plus 1% antibiotic-antimycoticmixture (10,000 U/mL of potassium penicillin, 10,000 μg/mL of streptomycin sulfate, 25 μg/mL of amphotericin B and 1% of L glutamine (Biowest, USA)). BJ-1 of a human skin fibroblast derived from normal foreskin was obtained from ATCC® CRL-2522™ as a frozen ampoule with about 1 × 10^6 cells per 1 ml volume. BJ-1 was maintained in MEM with 2 mM of L-glutamine and Earle’s salts medium.
Cell viability was studied using the MTT 3-(4,5-dimethylthiazol-2-yl)-2,5-diphenyl-tetrazolium bromide (Bio Basic Canada Inc. Toronto, Canada) assay [33]. The steps were executed in a sterile laminar air flow cabinet biosafety class II level (Baker, SG403INT; Sanford, ME, USA). All incubations were carried out at 37 °C in a 5% CO2 incubator under a humidified atmosphere of 95% (Sheldon, TC2323; Cornelius, OR, USA). Cells were seeded into 96-well microtiter plastic plates at a concentration of (10^4 cells/well) and allowed to adhere for 24 h. The medium was aspirated and then added to the cells with the test compounds 11a–c, 12a–c, 13a–i, 14a–i and 15a,b at a single dose of 100 μg/mL in DMSO. After incubation of the medium for 48 h, 40 μL of MTT salt (2.5 μg/mL) was added to each well and then incubated for an additional 4 h. To stop the reaction and dissolve any formed formazan crystals, 200 μL of 10% sodium dodecyl sulfate (SDS) were added to each well and incubated overnight at 37 °C. The amount of formazan product was measured at 595 nm with a reference wavelength of 690 nm as a background using a microplate reader (Bio-Rad Laboratories, model 3350, California, USA). For the untreated cells (negative control), the medium was added instead of the tested compounds. […] Dimethylsulfoxide (DMSO) was the vehicle used for dissolution of the testing compound, and its final concentration on the cells was less than 0.2%. At the same dilution, the solvent concentration was the same for all drugs and between the control and drug treatments.

[4] = system: caspase-3; test: Caspase-3 colorimetric assay in HCT-116 cells; assay type: cell-based, human; settings: HCT-116 cells treated at IC50 concentration; control 13.60 ± 2.45; mean ± SD
Text: as §1, §2

[5] = system: P. aeruginosa (ATCC 27853); test: Disk diffusion antimicrobial test, P. aeruginosa; assay type: cell-based, Pseudomonas areuginosa; settings: Pseudomonas aeruginosa, ATCC27853, Gram-negative, 20 mg per disc (title), concentration 20 µg (footnote)
Method: The newly synthesized compounds were chosen to be evaluated in vitro towards a variety of pathogenic microorganisms; Gram-positive bacteria: S. aureus (ATCC 6538) and B. subtilis (ATCC 6633); Gram-negative bacteria: P. areuginosa (ATCC 27853) and E. coli (DSMZ 1058); yeast: C. albicans (ATCC 10231) and S. cerevisiae (ATCC 9080) and fungi: A. niger (NRRL A-326) using the disk diffusion method at a single dose of 20 µl. The results are shown in Table 1 as the growth inhibition zone (mm).
The antimicrobial activity of target compounds were evaluated to be in vitro against a variety of pathogenic microorganisms, namely Staphylococcus aureus (ATCC 6538), Bacillus subtilis (ATCC 6633) (Gram-positive bacteria), Pseudomonas areuginosa (ATCC 27853), Escherichia coli (DSMZ 1058) (Gram-negative bacteria), Candida albicans (ATCC 10231), Saccharomyces cerevisiae (ATCC 9080) (Yeast) and Aspergillus niger (NRRL A-326) (Fungi) using the disk diffusion method at a single dose of 20 µg. The microorganisms were served and obtained from the Microbial Biotechnology Department, National Research Center, Giza, Egypt. Amphotericin, amoxicillin and ciprofloxacin were used as reference drugs (Oxoid™ Disks). The tested compounds 11a–c, 12a–c, 13a–i, 14a–i and 15a,b were dissolved in dimethylsulphoxide (DMSO) at a concentration of 1 mg/mL. Aliquots of 20 μl were soaked on filter paper discs (6 mm) and dried at room temperature under sterilized conditions. The paper discs were placed on inoculated agar plats and then incubated for 24 h at 37 °C for bacterial strains and after 48–72 h incubation at 30 °C for fungi. Both bacterial and yeast strains were grown on nutrient agar medium (g/l): beef extract, 3; peptone, 10 and agar, 20 at pH of 7.2. The fungal strain was grown on Czapek-Dox medium (g/l): sucrose, 30; NaNO3, 3; MgSO4.7H2O, 0.5l; KCl, 0.5; FeSO4, 0.01; K2HPO4, 1 and agar, 20 at pH of 6.0.

[6] = system: p53; test: p53 ELISA in HCT-116 cells; assay type: cell-based, human; settings: HCT-116 cells treated at IC50 concentration; control 1.68 ± 0.06; mean ± SD
Text: as §1, §2

[7] = system: caspase-3; test: Caspase-3 colorimetric assay in MCF-7 cells; assay type: cell-based, human; settings: for Caspase-3 Activity %: MCF-7 cells treated at IC50 concentration, control 10.2 ± 2.84, mean ± SD; for Elevation of active caspase-3 protein levels compared to the control: MCF-7 cells, IC50 concentration
Text: as §1, §2

[8] = system: MCF-7 (human breast cancer); test: MTT cytotoxicity assay, MCF-7; assay type: cell-based; settings: for inhibition at 100 µg/mL: MCF7, 100 µg/ml, 48 h, read-out: Growth Inhibition (%) MCF-7; for IC50: MCF7, 48 h post-treatment
[9] = 15 min, read-out: Scavenging Activity (%) on DPPH radicals at 15 min
[10] = 30 min, read-out: Scavenging Activity (%) on DPPH radicals at 30 min
[11] = 45 min, read-out: Scavenging Activity (%) on DPPH radicals at 45 min
[12] = 60 min, read-out: Scavenging Activity (%) on DPPH radicals at 60 min

Compound: COc1c(C2=NNC3(C2)C(=O)Nc2ccccc23)c(OC)c2ccoc2c1OC (centres unmarked) [Compound 12b, 5’-(4,6,7-Trimethoxy-benzofuran-5-yl)-2’,4’-dihydrospiro(indoline-3,3’-pyrazol)-2-one]
- p53 (Pg/50 mg Protein) [1]: 29.58 ± 2.53 Pg/50 mg Protein
- inhibition [2, 9]: 17.3 ± 1.53%
- inhibition [2, 10]: 23.5 ± 1.64%
- inhibition [2, 11]: 30.6 ± 1.49%
- inhibition [2, 12]: 40.6 ± 1.46%
- inhibition at 100 µg/mL [3]: 95.1%
- IC50 [3]: 7.9 µg/mL (≈ 20.1 µM)
- Caspase-3 Activity % [4]: 33.12 ± 1.37%
- zone of inhibition at 20 µg/disc [5]: 24 mm
- p53 (pg/50 mg Protein) [6]: 48.07 ± 1.94 pg/50 mg Protein
- Caspase-3 Activity % [7]: 47.25 ± 1.89%
- Elevation of active caspase-3 protein levels compared to the control [7]: ~4.6 folds
- inhibition at 100 µg/mL [8]: 97.4%
- IC50 [8]: 16.7 µg/mL (≈ 42.5 µM)

Compound: COc1cc2occc2c(OC)c1C1=NNC2(C1)C(=O)Nc1ccccc12 (centres unmarked) [Compound 11b, 5’-(4,6-Dimethoxy-benzofuran-5-yl)-2’,4’-dihydrospiro(indoline-3,3’-pyrazol)-2-one]
- p53 (Pg/50 mg Protein) [1]: 5.85 ± 0.75 Pg/50 mg Protein
- inhibition [2, 9]: 9.6 ± 1.77%
- inhibition [2, 10]: 14.3 ± 1.52%
- inhibition [2, 11]: 20.4 ± 1.65%
- inhibition [2, 12]: 30.8 ± 2.04%
- inhibition at 100 µg/mL [3]: 94.9%
- IC50 [3]: 16.4 µg/mL (≈ 45.1 µM)
- Caspase-3 Activity % [4]: 14.04 ± 0.54%
- zone of inhibition at 20 µg/disc [5]: 12 mm
- p53 (pg/50 mg Protein) [6]: 3.25 ± 0.15 pg/50 mg Protein
- Caspase-3 Activity % [7]: 16.19 ± 0.79%
- Elevation of active caspase-3 protein levels compared to the control [7]: ~ 1.6 folds
- inhibition at 100 µg/mL [8]: 92.3%
- IC50 [8]: 19.4 µg/mL (≈ 53.4 µM)

Compound: COc1c(C2=NNC3(C2)C(=O)Nc2ccccc23)c(O)cc2occc12 (centres unmarked) [Compound 11a, 5’-(6-Hydroxy-4-methoxy-benzofuran-5-yl)-2’,4’-dihydrospiro(indoline-3,3’-pyrazol)-2-one]
- p53 (Pg/50 mg Protein) [1]: 14.45 ± 0.82 Pg/50 mg Protein
- inhibition [2, 9]: 6.86 ± 1.17%
- inhibition [2, 10]: 10.3 ± 1.37%
- inhibition [2, 11]: 17.7 ± 1.28%
- inhibition [2, 12]: 26.9 ± 1.56%
- inhibition at 100 µg/mL [3]: 96.2%
- IC50 [3]: 5.7 µg/mL (≈ 16.3 µM)
- Caspase-3 Activity % [4]: 19.12 ± 0.89%
- zone of inhibition at 20 µg/disc [5]: 8 mm
- p53 (pg/50 mg Protein) [6]: 16.2 ± 0.56 pg/50 mg Protein
- Caspase-3 Activity % [7]: 16.67 ± 0.67%
- Elevation of active caspase-3 protein levels compared to the control [7]: ~ 1.6 folds
- inhibition at 100 µg/mL [8]: 94.3%
- IC50 [8]: 21.1 µg/mL (≈ 60.4 µM)

Compound: COc1c(C2=NNC3(C2)C(=O)Nc2ccccc23)c(O)c(OC)c2occc12 (centres unmarked) [Compound 12a, 5’-(6-Hydroxy-4,7-dimethoxy-benzofuran-5-yl)-2’,4’-dihydrospiro(indoline-3,3’-pyrazol)-2-one]
- p53 (Pg/50 mg Protein) [1]: 13.31 ± 1.08 Pg/50 mg Protein
- inhibition [2, 9]: 56.4 ± 1.08%
- inhibition [2, 10]: 67.1 ± 1.45%
- inhibition [2, 11]: 76.9 ± 1.51%
- inhibition [2, 12]: 81.4 ± 1.37%
- inhibition at 100 µg/mL [3]: 96.7%
- IC50 [3]: 5.8 µg/mL (≈ 15.3 µM)
- Caspase-3 Activity % [4]: 17.43 ± 0.58%
- zone of inhibition at 20 µg/disc [5]: 18 mm
- p53 (pg/50 mg Protein) [6]: 23.11 ± 1.22 pg/50 mg Protein
- Caspase-3 Activity % [7]: 14.18 ± 0.74%
- Elevation of active caspase-3 protein levels compared to the control [7]: ~1.4 folds
- inhibition at 100 µg/mL [8]: 93.6%
- IC50 [8]: 20.2 µg/mL (≈ 53.2 µM)
